Measured values as given in US20200011856A1, “Method for Determining the Effectiveness of Treatment for the Prevention of Heartworm Disease” (priority 2017, published 2020).
“And” between values parts separate entries of the source, which are not always exact repeats. Identical values can stand only once.

Tests used:
[1] = system: Dirofilaria immitis (Merial worms, UC strain); assay: D. immitis L3 infection of NSG mice with Merial worms / UC strain, treatment, recovery and count of worms; format: in vivo
Dirofilaria immitis = assay: D. immitis L3 infection of NSG mice (FR3 Missouri strain or strain not stated), treatment, recovery and count of worms at necropsy; format: in vivo; details: for % Rec / Survival / % Rec (percent of the original 50 Di recovered) / Survival (number of Di recovered from the mouse): individual mouse; for % Rec (percent of the original 50 Di recovered) / Survival (number of Di recovered from the mouse): 1 mg/kg
[2] = system: Strongyloides stercoralis; assay: Strongyloides stercoralis L3 infection of NSG mice with or without MPA, treatment, counts of adult worms, L1 and L3; details: 6 weeks post-injection; for Adult S. stercoralis recovery counts (individual mice) / Adult S. stercoralis recovery counts, mean / L1 S. stercoralis recovery counts (individual mice) / L1 S. stercoralis recovery counts, mean / L3 S. stercoralis recovery counts (individual mice) / L3 S. stercoralis recovery counts, mean: 5000 L3 s.c.; for Circulating L3: NSG mice, 5000 S. stercoralis L3 SC, with or without MPA
Text: NSG mice infected by subcutaneous injection with 5000 S. stercoralis L3 larvae, either with or without MPA. […] Adult worms, L1 larvae, or L3 larvae were counted in the mice at 6 weeks post-injection.

[3] = EMO 1 mg/kg Days 1, 15, 30, 50 Di L3 (UC Strain) per NSG mouse, recovery Days 41 to 43, group mean
[4] = EMO 1 mg/kg Days 1, 15, 30, 50 Di L3 (UC Strain) per NSG mouse, recovery Days 41 to 43, individual mice
[5] = group mean, NSG mice, 50 Di L3 Merial worms, 1 mg/kg on Days 1, 15, and 30, recovery Days 41 to 43
[6] = group mean, NSG mice, 50 Di L3 Merial worms, high dose 5 mg/kg on Days 1, 15, and 30, recovery Days 41 to 43
[7] = group mean, NSG mice, 50 Di L3 UC strain, High Dose 5 mg/kg on Days 1, 15, and 30, recovery Days 41 and 42
[8] = individual mouse, NSG mice, 50 Di L3 Merial worms, 1 mg/kg on Days 1, 15, and 30, recovery Days 41 to 43, 1 mg/kg
[9] = individual mouse, NSG mice, 50 Di L3 Merial worms, high dose 5 mg/kg on Days 1, 15, and 30, recovery Days 41 to 43, 5 mg/kg
[10] = individual mouse, NSG mice, 50 Di L3 UC strain, High Dose 5 mg/kg on Days 1, 15, and 30, recovery Days 41 and 42, 5 mg/kg
[11] = NSG mice, 50 Di L3, 1x (1 mg/kg) at Day 30, recovery Days 41 to 43
[12] = NSG mice, 50 Di L3, 2x (1 mg/kg) at Days 1 and 30, recovery Days 41 to 43
[13] = NSG mice, 50 Di L3, 3x (1 mg/kg) at Days 1, 15, and 30, recovery Days 41 to 43
[14] = NSG mice, 50 Di L3 Day 0, 1 mg/kg EMO or 8800 on Days 30 and 60, recovery Days 83 and 84
[15] = NSG mice, 50 Di L3 Day 0, 1 mg/kg on Day 30, recovery Days 41 to 43
[16] = Table 9, NSG mice, 50 Di L3, 1 mg/kg on Days 1, 15, and 30, recovery Days 41 to 43
[17] = Table 9, group mean, NSG mice, 50 Di L3, 1 mg/kg on Days 1, 15, and 30, recovery Days 41 to 43
[18] = Table 11, NSG mice, 50 Di L3, 5 mg/kg on Days 1, 15, and 30, recovery Days 41 to 42
[19] = Table 11, group mean, NSG mice, 50 Di L3, 5 mg/kg on Days 1, 15, and 30, recovery Days 41 to 42
[20] = group mean, NSG mice, 50 Di L3, 1x (1 mg/kg) at Day 30, recovery Days 41 to 43
[21] = group mean, NSG mice, 50 Di L3 Day 0, 1 mg/kg EMO or 8800 on Days 30 and 60, recovery Days 83 and 84
[22] = group mean, NSG mice, 50 Di L3 Day 0, 1 mg/kg on Day 30, recovery Days 41 to 43
[23] = EMO Control: 2.5 mg/kg EMO days 1, 15, 30, without MPA
[24] = EMO/MPA: 2.5 mg/kg EMO days 1, 15, 30, with MPA (hyperinfection)
[25] = IVM Control: 3 mg/kg IVM days 1, 15, 30, without MPA
[26] = IVM/MPA: 3 mg/kg IVM days 1, 15, 30, with MPA (hyperinfection)

Structure (SMILES): CC(C)C[C@H]1C(=O)O[C@H](Cc2ccc(N3CCOCC3)cc2)C(=O)N(C)[C@@H](CC(C)C)C(=O)O[C@H](C)C(=O)N(C)[C@@H](CC(C)C)C(=O)O[C@H](Cc2ccc(N3CCOCC3)cc2)C(=O)N(C)[C@@H](CC(C)C)C(=O)O[C@H](C)C(=O)N1C [EMO, emodepside]
- % Rec, Mean [1, 3]: 24%
- Survival, Mean [1, 3]: 12
- % Rec [1, 4]: 18% (2×) and 26% and 30% (2×) and 12% and 36%
- Survival [1, 4]: 9 (2×) and 13 and 15 (2×) and 6 and 18
- % Red ([1]; NSG mice, 50 Di L3 Merial worms, 1 mg/kg on Days 1, 15, and 30, recovery Days 41 to 43): 35%
- % Red ([1]; NSG mice, 50 Di L3 Merial worms, high dose 5 mg/kg on Days 1, 15, and 30, recovery Days 41 to 43): 0%
- % Red ([1]; NSG mice, 50 Di L3 UC strain, High Dose 5 mg/kg on Days 1, 15, and 30, recovery Days 41 and 42): 47%
- Mean % Rec [1, 5]: 22%
- Mean Survival [1, 5]: 11
- Mean % Rec [1, 6]: 51%
- Mean Survival [1, 6]: 25
- Mean % Rec [1, 7]: 19%
- Mean Survival [1, 7]: 10
- % Red ([1]; in vivo): 37%
- % Rec [1, 8]: 14% and 26% and 24% (2×) and 16% and 20% and 32% and 22%
- Survival [1, 8]: 7 and 13 and 12 (2×) and 8 and 10 and 16 and 11
- % Rec [1, 9]: 52% and 68% and 48% (4×) and 56% and 36%
- Survival [1, 9]: 26 and 34 and 24 (4×) and 28 and 18
- % Rec [1, 10]: 20% (3×) and 22% (2×) and 18% and 14%
- Survival [1, 10]: 10 (3×) and 11 (2×) and 9 and 7
- HW parasite load (normalized percent larva recovery, FIG. 2) (Dirofilaria immitis; NSG mice dosed orally with 1 mg/kg at Days 1, 15, and 30 post-infection, day 42/6 weeks): significantly reduced HW parasite load
- % Red (Dirofilaria immitis; [11]): 0%
- % Red (Dirofilaria immitis; [12]): 15%
- % Red (Dirofilaria immitis; [13]): 50%
- % Red (Dirofilaria immitis; [14]): 86%
- % Red (percent reduction in percent of Di recovered compared to control) (Dirofilaria immitis; [15]): 30%
- % Red (Dirofilaria immitis; [16]): 33%
- Mean % Rec (Dirofilaria immitis; [17]): 22%
- Mean Survival (Dirofilaria immitis; [17]): 11
- % Rec (Dirofilaria immitis; [16]): 26% and 24% (2×) and 16% (2×) and 20% and 22%
- Survival (Dirofilaria immitis; [16]): 13 and 12 (2×) and 8 (2×) and 10 and 11
- % Red (Dirofilaria immitis; [18]): 0%
- Mean % Rec (Dirofilaria immitis; [19]): 26%
- Mean Survival (Dirofilaria immitis; [19]): 13
- % Rec (Dirofilaria immitis; [18]): 22% (2×) and 28% and 36% and 34% and 14%
- Survival (Dirofilaria immitis; [18]): 11 (2×) and 14 and 18 and 17 and 7
- Mean % Rec (Dirofilaria immitis; [20]): 39%
- Mean Survival (Dirofilaria immitis; [20]): 19
- Mean % Rec (Dirofilaria immitis; group mean, NSG mice, 50 Di L3, 2x (1 mg/kg) at Days 1 and 30, recovery Days 41 to 43): 29%
- Mean % Rec (Dirofilaria immitis; group mean, NSG mice, 50 Di L3, 3x (1 mg/kg) at Days 1, 15, and 30, recovery Days 41 to 43): 17%
- Mean % Rec (Dirofilaria immitis; [21]): 2%
- Mean Survival (Dirofilaria immitis; [21]): 1
- Mean % Rec (Dirofilaria immitis; [22]): 28%
- Mean Survival (Dirofilaria immitis; [22]): 14
- Mean Survival (Dirofilaria immitis; in vivo): 14 and 9
- % Rec (Dirofilaria immitis; [11]): 36% and 28% (2×) and 46% (2×) and 42% and 44%
- Survival (Dirofilaria immitis; [11]): 18 and 14 (2×) and 23 (2×) and 21 and 22
- % Rec (Dirofilaria immitis; [12]): 28% and 26% (3×) and 30% and 42% and 22%
- Survival (Dirofilaria immitis; [12]): 14 and 13 (3×) and 15 and 21 and 11
- % Rec (Dirofilaria immitis; [13]): 28% (2×) and 14% and 22% and 4% and 6% and 20%
- Survival (Dirofilaria immitis; [13]): 14 (2×) and 7 and 11 and 2 and 3 and 10
- % Rec (percent of the original 50 Di recovered) (Dirofilaria immitis; [14]): 2% (3×) and 0% (3×) and 6% (2×)
- Survival (number of Di recovered from the mouse) (Dirofilaria immitis; [14]): 1 (3×) and 0 (3×) and 3 (2×)
- % Rec (percent of the original 50 Di recovered) (Dirofilaria immitis; [15]): 24% and 30% (2×) and 32% and 28% and 26%
- Survival (number of Di recovered from the mouse) (Dirofilaria immitis; [15]): 12 and 15 (2×) and 16 and 14 and 13
- Adult S. stercoralis recovery counts (individual mice) [2, 23]: 0 (4×) and 1
- Adult S. stercoralis recovery counts, mean [2, 23]: 0.2
- L1 S. stercoralis recovery counts (individual mice) [2, 23]: 0
- L1 S. stercoralis recovery counts, mean [2, 23]: 0
- L3 S. stercoralis recovery counts (individual mice) [2, 23]: 5 (2×) and 8 and 0 and 1
- L3 S. stercoralis recovery counts, mean [2, 23]: 4
- Adult S. stercoralis recovery counts (individual mice) [2, 24]: 0
- Adult S. stercoralis recovery counts, mean [2, 24]: 0
- L1 S. stercoralis recovery counts (individual mice) [2, 24]: 0
- L1 S. stercoralis recovery counts, mean [2, 24]: 0
- L3 S. stercoralis recovery counts (individual mice) [2, 24]: 4 and 123 and 228 and 102 and 130 and 39 and 18
- L3 S. stercoralis recovery counts, mean [2, 24]: 92
- Circulating L3 ([2]; 2.5 mg/kg on days 1, 15, and 30): reduced the circulating L3

Structure (SMILES): CC[C@H](C)[C@H]1O[C@]2(CC[C@@H]1C)C[C@@H]1C[C@@H](C/C=C(\C)[C@@H](O[C@H]3C[C@H](OC)[C@@H](O[C@H]4C[C@H](OC)[C@@H](O)[C@H](C)O4)[C@H](C)O3)[C@@H](C)/C=C/C=C3\CO[C@@H]4[C@H](O)C(C)=C[C@@H](C(=O)O1)[C@]34O)O2 [IVM, ivermectin]
- % Red ([1]; in vivo, 3 mg/kg): 47%
- Mean % Rec ([1]; in vivo, 3 mg/kg): 18%
- Mean Survival ([1]; in vivo, 3 mg/kg): 9
- % Rec, Mean (Dirofilaria immitis; in vivo): 1% and 4% and 2%
- Mean % Rec (Dirofilaria immitis; in vivo): 6%
- Mean Survival (Dirofilaria immitis; in vivo): 3
- HW parasite load (normalized percent larva recovery, FIG. 2) (Dirofilaria immitis; in vivo, po, 3 mg/kg): significantly reduced HW parasite load
- Adult S. stercoralis recovery counts (individual mice) [2, 25]: 0
- Adult S. stercoralis recovery counts, mean [2, 25]: 0
- L1 S. stercoralis recovery counts (individual mice) [2, 25]: 0
- L1 S. stercoralis recovery counts, mean [2, 25]: 0
- L3 S. stercoralis recovery counts (individual mice) [2, 25]: 6 and 9 and 26 and 210 and 2
- L3 S. stercoralis recovery counts, mean [2, 25]: 51
- Adult S. stercoralis recovery counts (individual mice) [2, 26]: 0
- Adult S. stercoralis recovery counts, mean [2, 26]: 0
- L1 S. stercoralis recovery counts (individual mice) [2, 26]: 0
- L1 S. stercoralis recovery counts, mean [2, 26]: 0
- L3 S. stercoralis recovery counts (individual mice) [2, 26]: 19 and 24 and 4 and 13 and 25 and 16 and 40 and 38
- L3 S. stercoralis recovery counts, mean [2, 26]: 22
- Circulating L3 ([2]; 3 mg/kg on days 1, 15, and 30): reduced the circulating L3
